Data taken from publication PMC9413201, “Covalent Proteomimetic Inhibitor of the Bacterial FtsQB Divisome Complex” (Journal of the American Chemical Society, 2022).
Like-named read-outs stand apart in the source and are kept apart here.

What was measured:
E. coli lptD4213 (imp) = experiment: Growth assay (OD600) with outer membrane-permeable E. coli lptD4213 (imp); type: cell-based; details: for Δt1/2 (delay in growth compared to DMSO-treated sample): inhibitor c = 50 μM, MOPS medium, 37 °C
Description: Growth assays were performed to assess the in vitro cytotoxicity of peptides. The experiments were executed under sterile conditions. For each assay, 20 mL of fresh MOPS medium was prepared (Teknova Inc MOPS EZ Rich Defined Medium Kit | M2105: 40 mM MOPS, 4 mM Tricine, 0.01 mM FeSO4, 9.5 mM NH4Cl, 0.276 mM […]
MOPS medium with Streptomycin (30 μg/mL) and incubated overnight at 200 rpm and 37°C. The next day, the […]
peptide stocks in DMSO were diluted to four times the desired highest concentration to be measured in MOPS medium. The peptide dilutions were vortexed and briefly centrifuged. 50 μL of MOPS medium was added to each well of a Corning® 96-well Clear Flat Bottom Polystyrene TC-treated Microplate. A twofold dilution series was performed by adding 50 μL of the diluted peptide to the top row, mixing it and taking 50 μL to the next row. At each step the solution was resuspended five times. This was repeated until the last row which was skipped in order to obtain a reference measurement. After 2-3 h, the E.coli lptD4213 (imp) pre-culture was diluted to an OD600 of 0.00005. Then, 50 μL of diluted culture were added to each well and the plate sealed using a lid and parafilm. The OD600 was measured every 15 min over a period of more than 20 h (continuously shaking, 37°C) using a BioTek Synergy H1 plate reader. The obtained data were analyzed and relative growth curves plotted with GraphPad Prism 8. The assays were performed as technical triplicates. A single overnight pre-culture was used to prepare the diluted MOPS culture used in the growth assay. […]

FtsQ(50–276) [1] = biological target: T1, FtsQ(50–276) (Escherichia coli, UniProt P06136); details: tryptic digest, LC-MS/MS
Description: μM CaCl2, 50 mM NaCl, traces of (NH4)6Mo7O24, H3BO3, CoCl2, CuSO4, MnCl2 and ZnSO4, 1.32 mM dibasic anhydrous […], 0.20% glucose, 1.5 mM KOH, 0.199 mM adenine, cytosine, uracil and guanine and 0.01 mM to 10 mM amino acids). A preculture of E.coli lptD4213 (imp) was prepared in 5 mL MOPS medium with streptomycin (30 μg/mL), which was grown overnight at 200 rpm and 37°C. The next day, the overnight culture was diluted a thousandfold and grown up to an OD600 of about 0.5 at 200 rpm and 37°C. After 2-3h, the culture was diluted to an OD600 of 0.1. 10 mM peptide stocks in DMSO were subsequently diluted to 200 μM in MOPS medium. For measuring two time points, a total volume of 110 μL peptide dilution was prepared, for 3 timepoints this was 160 μL. For each time point, 50 μL of diluted peptide was added into an Eppendorf tube, to which 50 μL diluted culture was added (final peptide concentration: 100 μM, starting OD600 = 0.05). The tubes were incubated for either 1,3 or 6 h at 200 rpm and 37°C. Then the cells were fixed using 8.3 μL 37% formaldehyde solution in H2O and incubated for 5 min at 200 rpm and 37°C. Subsequently, the mixture was centrifuged at 500 rpm for 5 min, after which the supernatant was discarded. The pellets were redissolved in 7.5 μL PBS buffer and stored at […]
Microscopy slides were prepared by melting 1% Nobel Agarose in MiliQ water in a microwave. 800 μL was dispersed over a well slide, a microscopy slide was put on top and air bubbles were removed. The agar was allowed to cool for 15 min, after which the microscopy slide was removed. The frozen samples were thawed and 3 μL of each sample was added to separate wells, after which a covering glass was put on top. Using an Olympus IX83 microscope with 100 times magnification ocular and phase contrast (halogen lamp wat approximately 7V), the morphology of the cells was investigated. Pictures were taken and subsequently analyzed with ImageJ and the ObjectJ Cell Counter (https://sils.fnwi.uva.nl/bcb/objectj/examples/CellCounter/cellcounter-md/cellcounter.html, accessed on February 2020).
For the MS/MS experiment samples were prepared as follows. The FtsQ(50˗276) stock solution was diluted to 100 μM and the stock of peptide 24fα was diluted to 250 μM with previously used binding buffer (20 mM NH4HCO3 (pH 7.6), 150 mM NaCl). 10 μL of each diluted stock were merged and the resulting mixture incubated over night at 37 °C. Then the samples were mixed with 5x SDS Sample buffer and 2.5 μL/lane loaded on to a 17% tris/tricine PAGE. The gel was run for 15 min at 90 V and 2h at 150 V.
A container of glass was prepared and extensively washed with soda and water. The gel was placed in the container and incubated in fixing solution (50% EtOH, 3% H3PO4) overnight to remove SDS. The next day, the fixing solution was removed and the gel washed with water a couple of times. Colloidal Coomassie staining solution (34% MeOH, 3 % H3PO4, 150 g (NH4)2SO4/L, 1 g/L G250) was added and the gel stained for 2 d. Then the gel was washed 3x for 30 min with water. Then the bands corresponding to modified and unmodified FtsQ were cut out (1 mm3 pieces) from the gel and transferred to original Eppendorf tubes. The gel pieces were washed with 200 μL water by vortex mixing for 30 s. Then the water was discarded. The gel pieces were then washed with 200 μL MeOH:50 mM NH4HCO3 (1:1 v/v) for 1 min with intermittent vortex mixing. The supernatant was discarded and the procedure repeated once. Then the gel pieces were dehydrated for 5 min in 200 μL of ACN: 50 mM NH4HCO3 (1:1 v/v) with intermittent vortex mixing. The supernatants were discarded and 200 μL of 100 % ACN added, mixed and incubated for 30 s. The samples were dried in a SpeedVac (appr. 5 min). They were then […]
rehydrated in 20 μL of 12 ng/μL Trypsin in 0.01% ProteaseMAX surfactant (Promega): 50 mM NH4HCO3 (Trypsin gold stock 1 μg/μl from Promega, high thermostability) for 10 min (2 μL to 200 μL) and overlayed with […]

FtsQ(50–276) [2] = biological target: T1, FtsQ(50–276); type: biochemical, E. coli; design: pET16b FtsQ(50˗276), a His6 fusion; made in house; host or cells: Escherichia coli BL21 DE3
Description: 1.5 Protein modification assay
To determine the reactivity of the different modifiers FtsQ(50˗276) was diluted to a concentration of 100 µM in 20 mM NH4HCO3 buffer (pH 7.6, 150 mM NaCl). The individual peptides were diluted to a concentration of 250 μM in the same buffer. Equal volumes of both solutions were mixed and incubated at 37 °C for the given time period (1 h or 3 h). The reaction was quenched using 5x SDS sample buffer (pH 6.8, 1.875 g TRIS-Cl, 25 mL glycerol, 5 g SDS, 12.5 mL β-mercaptoethanol, 0.5 % bromphenol blue and add 50 mL ddH2O). Samples were heated to 96 °C for 2 min and subsequently analysed by 17 % tris/tricine PAGE (15 min at 90 V and then 3:45 h at 150 V). PageRuler™ Prestained Protein Ladder, 10 to 180 kDa (Thermo Scientific™) was used as a ladder.
Staining was performed using standard Coomassie Staining Solution (40 mL EtOH, 0.3 g Coomassie Blue R250, 0.3 g Coomassie Blue G250, ad 100 mL ddH2O.) and then destained using water.
17 % Tris/Tricine gel (2x):
Running gel: 1.6 mL H2O, 5.5 mL AB-mix, 2.5 mL Buffer A, 100 μL 10% APS, 10 μL 1% TEMED Stacking gel: 2.1 mL H2O, 0.5 mL AB-mix, 0.38 mL Buffer A, 50 μL 10% APS, 5 μL 1% TEMED […]
Buffer A (4x) pH 8.45 3M Tris, 0.3 % SDS; Anode Buffer (10x) pH 8.8, 3M Tris; Cathode buffer (10x) 1M Tris, […]

[3] = test system: FtsB-mNG localization in E. coli lptD4213 (imp); experiment: Localization of FtsB-mNG (fluorescence microscopy); type: cell-based; details: peptide c = 100 μM, 60 min after addition, MOPS rich medium, 37 °C
Description: were incubated for 1 h at 50 °C. The condensates were collected by centrifuging for 10 s. The digests were mixed for a few seconds and transferred to another tube. 0.5 % TFA was added to inactivate trypsin. The samples were […]
E.coli mutant lptD4213 (imp)
MOPS: MOPS EZ Rich Defined Medium Kit M2105 (Teknova).
At the end of the day, the cells
The next day, the cells were grown and diluted […]
objective. […] In all experiments, the cells […]
ex470/40, dic495LP, em525/50).

[4] = OD600 every 15 min over 22 h, n = 3 technical replicates

T1 sequence (P06136 50-276): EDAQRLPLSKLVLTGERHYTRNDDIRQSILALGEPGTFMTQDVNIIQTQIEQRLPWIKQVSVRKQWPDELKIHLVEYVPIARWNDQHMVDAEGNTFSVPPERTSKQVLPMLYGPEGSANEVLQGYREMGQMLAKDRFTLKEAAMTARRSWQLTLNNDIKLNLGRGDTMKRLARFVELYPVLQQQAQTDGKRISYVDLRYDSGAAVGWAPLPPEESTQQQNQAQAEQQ

In the case of “QEALEERA6NELSBTRPG6mFYRL (sidechain bridge or staple) [24fα]”, the “Δt1/2 (delay in growth compared to DMSO-treated sample)” value (E. coli lptD4213 (imp); [4]) is reported as 3.6 h, the “count ratio 24fα-modified / unmodified FtsQ, ID 2 HYTRNDDIR” value (FtsQ(50–276) [1]) is reported as 1.60 and the “count ratio 24fα-modified / unmodified FtsQ, ID 3 […](*)” value (FtsQ(50–276) [1]) is reported as 0.43. For the same substance, the “count ratio 24fα-modified / unmodified FtsQ, ID 4 K/QWPDELK/[…]” value (FtsQ(50–276) [1]) was 1.01, the “count ratio 24fα-modified / unmodified FtsQ, ID 5 […](*)” value (FtsQ(50–276) [1]) was 1.20 and the “count ratio 24fα-modified / unmodified FtsQ, ID 6 […]/EMGQMLAK(*)” value (FtsQ(50–276) [1]) was 1.00. For the same substance, the “count ratio 24fα-modified / unmodified FtsQ, ID 7 DRFTLK” value (FtsQ(50–276) [1]) was 1.03, the “count ratio 24fα-modified / unmodified FtsQ, ID 8 EAAMTAR*” value (FtsQ(50–276) [1]) was 0.62 and the “count ratio 24fα-modified / unmodified FtsQ, ID 9 R/[…] (contains K208)” value (FtsQ(50–276) [1]) was 1.13. The “count ratio 24fα-modified / unmodified FtsQ, ID 10 LNLGR/GDTMK/R (contains K218)” value (FtsQ(50–276) [1]) was 0.56, the “count ratio 24fα-modified / unmodified FtsQ, ID 11 […]/R (contains K239)” value (FtsQ(50–276) [1]) was 0.20 and the “count ratio 24fα-modified / unmodified FtsQ, ID 12 ISYVDLR” value (FtsQ(50–276) [1]) was 1.24. For the same substance, the “count ratio 24fα-modified / unmodified FtsQ, ID 13 […]” value (FtsQ(50–276) [1]) was 2.47, the “count ratio 24fα-modified / unmodified FtsQ, ID 1 LVLTGER” value (FtsQ(50–276) [1]; peptide 125 μM + FtsQ 50 μM overnight 37 °C) was 1.17 and the “covalent labeling of FtsQ(50–276) (up-shifted band)” value (FtsQ(50–276) [2]; peptide 125 μM, FtsQ(50–276) 50 μM, 20 mM NH4HCO3 pH 7.6, 150 mM NaCl, 37 °C, 1 or 3 h) was “showed labeling of FtsQ(50–276)”.

In the case of “A6NELSBTRPG6mFYRL (sidechain bridge or staple) [17fγ, vinyl sulfone-modified 17-mer macrocyclic scaffold]”, the “Δt1/2 (delay in growth compared to DMSO-treated sample)” value (E. coli lptD4213 (imp); [4]) is reported as 4.5 h and the “specificity of FtsQ(50–276) modification (number of up-shifted bands)” value (FtsQ(50–276) [2]) is reported as “two up-shifted bands”.

“QEALEERA6NELSBTRPG6mFYRL (sidechain bridge or staple) [24fγ, vinylsulfon-modified macrocyclic 24f, N-acetylated]” was tested, and the “specificity of FtsQ(50–276) modification (number of up-shifted bands)” value (FtsQ(50–276) [2]) was “multiple up-shifted bands” and the “covalent labeling of FtsQ(50–276) (up-shifted band)” value (FtsQ(50–276) [2]; pH 7.6) was “showed labeling of FtsQ(50–276)”.

For “A6NELSBTRPG6mFY (sidechain bridge or staple) [15fα, 24fα lacking seven N-terminal and two C-terminal amino acids; negative control peptide]”, the FtsB-mNG midcell localization [3] was “regular accumulation of FtsB-mNG at the midcell”, the “lowest concentration with inhibitory effect on growth” value (E. coli lptD4213 (imp); concentration-dependent effect on growth after 15 h, highest tested concentration 100 μM, n = 3 replicates) was > 100 µM and the “inhibitory activity on bacterial growth (OD600)” value (E. coli lptD4213 (imp); inhibitor c = 25 μM, OD600 every 15 min over 22 h, n = 3 technical replicates) was “did not exhibit inhibitory activity”.

For “QEALEERA6NELSBTRPG6mFYRL (sidechain bridge or staple) [24fδ]”, the “Δt1/2 (delay in growth compared to DMSO-treated sample)” value (E. coli lptD4213 (imp); [4]) was 4.1 h and the “covalent labeling of FtsQ(50–276) (up-shifted band)” value (FtsQ(50–276) [2]; pH 7.6) was “showed labeling of FtsQ(50–276)”.

In the case of “QEALEERA6NELSBTRPG6mFYRL (sidechain bridge or staple) [24fβ]”, the “Δt1/2 (delay in growth compared to DMSO-treated sample)” value (E. coli lptD4213 (imp); [4]) is reported as 1.7 h and the “covalent labeling of FtsQ(50–276) (up-shifted band)” value (FtsQ(50–276) [2]; pH 7.6) is reported as “showed labeling of FtsQ(50–276)”.

In the case of “A6NELSBTRPG6mFYRL (sidechain bridge or staple) [17fδ, dichlorotriazin-modified 17-mer macrocyclic scaffold]”, the “Δt1/2 (delay in growth compared to DMSO-treated sample)” value (E. coli lptD4213 (imp); [4]) is reported as 5.7 h.
